According to US8952024B2, “Herbicidal pyrimidone derivatives” (E I du Pont de Nemours and Company, priority 2009, dated 2015):

Legend:
Assay type in all cases: in vivo
[1] = system: velvetleaf (Abutilon theophrasti); test: Test B pre-/postemergence plant response
Text: (§1) Seeds of plant species selected from blackgrass (Alopecurus myosuroides), downy bromegrass (Bromus tectorum), green foxtail (Setaria viridis), Italian ryegrass (Lolium multiflorum), wheat (Triticum aestivum), wild oat (Avena fatua), deadnettle (henbit deadnettle, Lamium amplexicaule), galium (catchweed bedstraw, Galium aparine), bermudagrass (Cynodon dactylon), Surinam grass (Brachiaria decumbens), cocklebur (Xanthium strumarium), corn (Zea mays), large crabgrass (Digitaria sanguinalis), woolly cupgrass (Eriochloa villosa), giant foxtail (Setaria faberii), goosegrass (Eleusine indica), johnsongrass (Sorghum halepense), kochia (Kochia scoparia), lambsquarters (Chenopodium album), morningglory (Ipomoea coccinea), nightshade (eastern black nightshade, Solanum ptycanthum), yellow nutsedge (Cyperus esculentus), pigweed (Amaranthus retroflexus), ragweed (common ragweed, Ambrosia elatior), Russian thistle (Salsola kali), soybean (Glycine max), sunflower (common oilseed sunflower, Helianthus annuus) and velvetleaf (Abutilon theophrasti) were planted into a blend of loam soil and sand and treated preemergence with test compounds formulated in a non-phytotoxic solvent mixture which included a surfactant.
(§2) At the same time, plants selected from these crop and weed species and also winter barley (Hordeum vulgare), canarygrass (Phalaris minor), chickweed (Stellaria media) and windgrass (Apera spica-venti) were planted in pots containing Redi-Earth® planting medium (Scotts Company, 14111 Scottslawn Road, Marysville, Ohio 43041) comprising spaghnum peat moss, vermiculite, wetting agent and starter nutrients and treated with postemergence applications of some of the test chemicals formulated in the same manner. Plants ranged in height from 2 to 18 cm (1- to 4-leaf stage) for postemergence treatments.
(§3) Treated plants and controls were maintained in a greenhouse for 13 to 15 days, after which time all treated plants were visually evaluated and compared to controls. Plant response ratings, summarized in Table B, are based on a scale of 0 to 100 where 0 is no effect and 100 is complete control. A dash (-) response means no test result.

corn (Zea mays) = test: Test B pre-/postemergence plant response
Text: as §1, §2, §3

[2] = system: lambsquarters (Chenopodium album); test: Test B pre-/postemergence plant response
Text: as §1, §2, §3

[3] = system: johnsongrass (Sorghum halepense); test: Test B pre-/postemergence plant response
Text: as §1, §2, §3

[4] = system: yellow nutsedge (Cyperus esculentus); test: Test B pre-/postemergence plant response
Text: as §1, §2, §3

[5] = system: green foxtail (Setaria viridis); test: Test B pre-/postemergence plant response
Text: as §1, §2, §3

soybean (Glycine max) = test: Test B pre-/postemergence plant response
Text: as §1, §2, §3

[6] = system: pigweed (Amaranthus retroflexus); test: Test B pre-/postemergence plant response
Text: as §1, §2, §3

[7] = system: goosegrass (Eleusine indica); test: Test B pre-/postemergence plant response
Text: as §1, §2, §3

[8] = system: giant foxtail (Setaria faberii); test: Test B pre-/postemergence plant response
Text: as §1, §2, §3

[9] = system: winter barley (Hordeum vulgare); test: Test B postemergence plant response
Method in brief: (§4)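 Plants at the 1- to 4-leaf stage (2 to 18 cm tall), grown in pots of peat moss/vermiculite medium with wetting agent and starter nutrients, received postemergence applications of test chemicals. After 13 to 15 days in a greenhouse, injury was rated visually against untreated controls on a 0 (no effect) to 100 (complete control) scale.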

[10] = system: canarygrass (Phalaris minor); test: Test B postemergence plant response
Method in brief: as §4

[11] = system: chickweed (Stellaria media); test: Test B postemergence plant response
Method in brief: as §4

[12] = system: windgrass (Apera spica-venti); test: Test B postemergence plant response
Method in brief: as §4

[13] = 31 g ai/ha, postemergence, scale 0 to 100, 0 is no effect, 100 is complete control
[14] = Postemergence, 62 g ai/ha, scale 0 (no effect) to 100 (complete control), 13 to 15 days
[15] = Postemergence, 125 g ai/ha, visual rating after 13 to 15 days, scale 0 (no effect) to 100 (complete control)
[16] = Postemergence, 250 g ai/ha, scale 0 to 100 (0 no effect, 100 complete control)
[17] = Preemergence, 31 g ai/ha, scale 0 to 100 (0 no effect, 100 complete control)
[18] = Preemergence, 62 g ai/ha, scale 0 to 100 (0 no effect, 100 complete control)
[19] = Preemergence, 125 g ai/ha, scale 0 to 100, 0 no effect, 100 complete control
[20] = 250 g ai/ha, Preemergence, 0 to 100 scale

O=C1CCCC(O)=C1C(=O)c1cnc(-c2ccsc2)n(-c2ccccc2)c1=O [Compound 56]
100: Plant response rating, Lambsquarters [2, 15] | Plant response rating, Lambsquarters [2, 16] | Plant response rating, Johnsongrass [3, 16] | Plant response rating, Foxtail, Green [5, 20] | Plant response rating, Foxtail, Green [5, 16] | Plant response rating, Pigweed [6, 15] | Plant response rating, Pigweed [6, 16] | Plant response rating, Pigweed [6, 18] | Plant response rating, Pigweed [6, 19] | Plant response rating, Goosegrass [7, 20]
45: Plant response rating, Corn (corn (Zea mays); [13]) | Plant response rating, Johnsongrass [3, 18]
55: Plant response rating, Johnsongrass [3, 13] | Plant response rating, Johnsongrass [3, 19]
60: Plant response rating, Windgrass [12, 15]
75: Plant response rating, Nutsedge, Yellow [4, 15] | Plant response rating, Nutsedge, Yellow [4, 16] | Plant response rating, Goosegrass [7, 14] | Plant response rating, Goosegrass [7, 15] | Plant response rating, Foxtail, Giant [8, 13] | Plant response rating, Foxtail, Giant [8, 19]
98: Plant response rating, Velvetleaf [1, 15] | Plant response rating, Velvetleaf [1, 16] | Plant response rating, Velvetleaf [1, 19] | Plant response rating, Lambsquarters [2, 13] | Plant response rating, Lambsquarters [2, 20] | Plant response rating, Lambsquarters [2, 14] | Plant response rating, Lambsquarters [2, 18] | Plant response rating, Lambsquarters [2, 19] | Plant response rating, Foxtail, Green [5, 15] | Plant response rating, Soybean (soybean (Glycine max); [16]) | Plant response rating, Pigweed [6, 13] | Plant response rating, Pigweed [6, 14] | Plant response rating, Pigweed [6, 17] | Plant response rating, Chickweed [11, 15] | Plant response rating, Chickweed [11, 16]
10: Plant response rating, Johnsongrass [3, 17] | Plant response rating, Barley [9, 14]
40: Plant response rating, Foxtail, Giant [8, 18] | Plant response rating, Canarygrass [10, 15] | Plant response rating, Canarygrass [10, 16] | Plant response rating, Windgrass [12, 14]
95: Plant response rating, Lambsquarters [2, 17] | Plant response rating, Soybean (soybean (Glycine max); [15]) | Plant response rating, Goosegrass [7, 18] | Plant response rating, Goosegrass [7, 19] | Plant response rating, Foxtail, Giant [8, 16] | Plant response rating, Chickweed [11, 14]
85: Plant response rating, Velvetleaf [1, 13] | Plant response rating, Velvetleaf [1, 17] | Plant response rating, Johnsongrass [3, 15] | Plant response rating, Nutsedge, Yellow [4, 19] | Plant response rating, Foxtail, Green [5, 14] | Plant response rating, Soybean (soybean (Glycine max); [13]) | Plant response rating, Soybean (soybean (Glycine max); [14]) | Plant response rating, Foxtail, Giant [8, 15] | Plant response rating, Windgrass [12, 16]
0: Plant response rating, Corn (corn (Zea mays); [20]) | Plant response rating, Corn (corn (Zea mays); [17]) | Plant response rating, Corn (corn (Zea mays); [18]) | Plant response rating, Corn (corn (Zea mays); [19]) | Plant response rating, Foxtail, Green [5, 17] | Plant response rating, Foxtail, Giant [8, 17] | Plant response rating, Barley [9, 13] | Plant response rating, Canarygrass [10, 13]
70: Plant response rating, Corn (corn (Zea mays); [16]) | Plant response rating, Nutsedge, Yellow [4, 14]
90: Plant response rating, Velvetleaf [1, 14] | Plant response rating, Velvetleaf [1, 18] | Plant response rating, Goosegrass [7, 16] | Plant response rating, Goosegrass [7, 17] | Plant response rating, Chickweed [11, 13]
20: Plant response rating, Nutsedge, Yellow [4, 13] | Plant response rating, Nutsedge, Yellow [4, 17] | Plant response rating, Foxtail, Green [5, 18] | Plant response rating, Foxtail, Green [5, 19] | Plant response rating, Soybean (soybean (Glycine max); [17])
30: Plant response rating, Barley [9, 15] | Plant response rating, Canarygrass [10, 14] | Plant response rating, Windgrass [12, 13]
80: Plant response rating, Johnsongrass [3, 20] | Plant response rating, Johnsongrass [3, 14] | Plant response rating, Nutsedge, Yellow [4, 18] | Plant response rating, Foxtail, Green [5, 13] | Plant response rating, Soybean (soybean (Glycine max); [19]) | Plant response rating, Foxtail, Giant [8, 20] | Plant response rating, Foxtail, Giant [8, 14]
65: Plant response rating, Corn (corn (Zea mays); [14]) | Plant response rating, Corn (corn (Zea mays); [15]) | Plant response rating, Goosegrass [7, 13]
